Test results from patent publication US20210330611A1, “THERAPY FOR NEUROLOGICAL DISEASES/DISORDERS” (priority 2020, published 2021).
Where two headings read alike, the source gives them in different places.

Experiments:
[1] = tested on: LPS-induced microglia activation; assay: Image-based assay of LPS-induced microglia activation (HTS and dose response); format: cell-based, rat; conditions: for inhibition at 10 µM: Rattus norvegicus, Microglia, read-out: LPS % inhibition
[2] = tested on: primary rat microglia; assay: Cell toxicity (dead cells, size <150 μm2) in coated fibrin (cFib) assay; conditions: for IC50: read-out: Cell Toxicity IC50 (uM) [cFib assay];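 on Fibrin % cell toxicity: share of dead cells sized under 150 µm2 at 10 µM in fibrin-stimulated microglia HTS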
[3] = tested on: fibrin-induced microglia activation; assay: Image-based assay of fibrin-induced microglia activation (HTS and dose response); format: cell-based, rat; conditions: for inhibition at 10 µM: Rattus norvegicus, Microglia, read-out: Fibrin % inhibition
[4] = tested on: fibrin- and LPS-induced microglia activation; assay: cells; format: cell-based, rat
[5] = tested on: primary rat microglia; assay: Cell toxicity (dead cells, size <150 μm2) in LPS assay; conditions: for IC50: read-out: Cell Toxicity IC50 (uM) [LPS assay]
[6] = 48 h, primary microglia HTS, LPS stimulation, activation = cell size >800 μm2
[7] = primary microglia HTS, fibrin stimulation, toxicity = cell size <150 μm2
[8] = primary microglia HTS, fibrin stimulation, activation = cell size >800 μm2
[9] = quadrant by fibrin and LPS inhibition in HTS of 1907 compounds
[10] = primary microglia HTS, LPS stimulation, toxicity = cell size <150 μm2
[11] = primary microglia HTS, fibrin stimulation, decreased size (<150 μm^2) as marker of toxicity
[12] = primary microglia HTS, fibrin stimulation, increased cell size (>800 μm^2) as marker of activation
[13] = HTS of 1907 compounds, quadrant by fibrin and LPS inhibition
[14] = primary microglia HTS, LPS stimulation, decreased size (<150 μm^2) as marker of toxicity
[15] = 48 h, primary microglia HTS, LPS stimulation, increased cell size (>800 μm^2) as marker of activation
[16] = primary HTS, 10 μM, LPS-stimulated primary microglia
[17] = primary HTS, 10 μM, fibrin assay, dead cells size <150 μm2
[18] = primary HTS, 10 μM, fibrin-stimulated primary microglia
[19] = primary HTS, 10 μM, LPS assay, dead cells size <150 μm2
[20] = primary microglia HTS, 10 μM, LPS-stimulated, cell size >800 μm^2 as marker of activation
[21] = primary microglia HTS, 10 μM, fibrin assay, cell size <150 μm^2 as marker of toxicity
[22] = primary microglia HTS, 10 μM, fibrin-stimulated, cell size >800 μm^2 as marker of activation
[23] = primary microglia HTS, 10 μM, LPS assay, cell size <150 μm^2 as marker of toxicity

Structure (SMILES): Nc1nc(F)nc2c1ncn2[C@@H]1O[C@H](COP(=O)(O)O)[C@@H](O)[C@@H]1O [Fludarabine Phosphate]
- inhibition at 10 µM [1, 6]: 11%
- Fibrin % cell toxicity [2, 7]: 1%
- inhibition at 10 µM [3, 8]: 1%
- Quadrant (FIG. 5b) [4, 9]: Q4
- LPS % cell toxicity [5, 10]: 0%

Structure (SMILES): CC(=O)[C@@]12O[C@](C)(c3ccccc3)O[C@@H]1C[C@H]1[C@@H]3CCC4=CC(=O)CC[C@]4(C)[C@H]3CC[C@@]12C [Algestone acetophenide, reference compound]
- IC50 ([1]; LPS-induced microglia activation, dose response, read-out: LPS IC50 (uM) (Suppl. Table 7)): 9 µM
- IC50 ([1]; Table 1, dose response 0.001-20 μM, triplicates, primary rat microglia, 48 h, read-out: LPS IC50): 9 µM
- IC50 ([1]; Table 3, read-out: LPS IC50 (uM) (Suppl. Table 7)): 9 µM
- IC50 ([1]; dose response, LPS-induced microglia activation, read-out: LPS IC50): 9 µM
- LPS % inhibition ([1]; primary microglia HTS, LPS stimulation, increased cell size (>800 μm^2) as marker of activation): 61%
- Fibrin % cell toxicity [2, 11]: 1%
- IC50 ([2]; Table 3): > 20 µM
- IC50 ([2]; cFib assay): > 20 µM
- Fibrin Selectivity [3]: 9
- Fibrin Selectivity (LOG10) [3]: 0.95
- IC50 ([3]; Table 1, dose response 0.001-20 μM, triplicates, primary rat microglia, 48 h, read-out: Fibrin IC50): 1 µM
- IC50 ([3]; Table 3, read-out: Fibrin IC50 (uM) (Suppl. Table 7)): 1 µM
- IC50 ([3]; dose response, fibrin-induced microglia activation, read-out: Fibrin IC50): 1 µM
- IC50 ([3]; fibrin-induced microglia activation, dose response, read-out: Fibrin IC50 (uM) (Suppl. Table 7)): 1 µM
- Fibrin % inhibition [3, 12]: 62%
- Hit ([4]; HTS hit classification): HIT (Hits were defined as molecules that exhibited greater than 50% inhibition of either fibrin or LPS activation)
- Quadrant (FIG. 5b) [4, 13]: Q2
- Quadrant (FIG. 5b) ([4]; Table 1, screen at 10 μM): Q2
- Cherry-picked Hit (Suppl. Table 7) ([4]; Table 3): HIT (Hits were defined as molecules that exhibited greater than 50% inhibition of either fibrin or LPS activation)
- Quadrant (FIG. 5b) ([4]; Table 3, screen at 10 μM): Q2
- Cherry-picked Hit (Suppl. Table 7) ([4]; hit classification in microglia HTS): HIT (Hits were defined as molecules that exhibited greater than 50% inhibition of either fibrin or LPS activation)
- Quadrant (FIG. 5b) [4, 9]: Q2
- LPS % cell toxicity [5, 14]: 2%
- IC50 ([5]; LPS assay): > 20 µM
- IC50 ([5]; Table 3): > 20 µM

Structure (SMILES): CC(=O)OCC(=O)[C@@]1(O)CC[C@H]2[C@@H]3CCC4=CC(=O)C=C[C@]4(C)[C@@]3(F)[C@@H](O)C[C@@]21C [Isoflupredone Acetate]
- inhibition at 10 µM [1, 15]: 90%
- Fibrin % cell toxicity [2, 11]: 3%
- inhibition at 10 µM [3, 12]: 106%
- Quadrant (FIG. 5b) [4, 9]: Q2
- LPS % cell toxicity [5, 14]: 2%

Structure (SMILES): CCC(CC)(CC(=O)Nc1cccc(/C=C/c2nc(C3CCC3)cs2)c1)C(=O)O [Cinalukast]
- inhibition at 10 µM [1, 16]: -8%
- Fibrin % cell toxicity [2, 17]: 1%
- inhibition at 10 µM [3, 18]: -21%
- Quadrant (FIG. 5b) ([4]; primary HTS, 10 μM): Q4
- LPS % cell toxicity [5, 19]: 0%

Structure (SMILES): CC(C)(C)NCC(O)c1ccccc1Cl.Cl (centres unmarked) [Tulobuterol, Tulobuterol Hydrochloride]
- LPS % inhibition [1, 20]: 36%
- Fibrin % cell toxicity [2, 21]: 0%
- Fibrin % inhibition [3, 22]: 21%
- Quadrant (FIG. 5b) [4, 13]: Q4
- LPS % cell toxicity [5, 23]: 0%

Structure (SMILES): CC(C)OC(=O)CCC/C=C\C[C@@H]1[C@@H](/C=C/[C@@H](O)COc2cccc(C(F)(F)F)c2)[C@H](O)C[C@@H]1O [Travoprost]
- inhibition at 10 µM [1, 20]: 15%
- Fibrin % cell toxicity [2, 21]: 1%
- inhibition at 10 µM [3, 22]: 4%
- Quadrant (FIG. 5b) [4, 13]: Q4
- LPS % cell toxicity [5, 23]: 0%

Structure (SMILES): Cc1cc2nc3ccc(N(C)C)cc3[s+]c2cc1N [Tolonium Chloride]
- inhibition at 10 µM [1, 20]: 43%
- Fibrin % cell toxicity [2, 21]: 1%
- inhibition at 10 µM [3, 22]: -4%
- Quadrant (FIG. 5b) [4, 13]: Q4
- LPS % cell toxicity [5, 23]: 1%

Structure (SMILES): NS(=O)(=O)Cc1noc2ccccc12 [Zonisamide]
- inhibition at 10 µM [1, 20]: -12%
- Fibrin % cell toxicity [2, 21]: 0%
- inhibition at 10 µM [3, 22]: -37%
- Quadrant (FIG. 5b) [4, 13]: Q4
- LPS % cell toxicity [5, 23]: 0%

Structure (SMILES): C=C[C@H]1C[N@@]2CC[C@H]1C[C@@H]2[C@@H](O)c1ccnc2ccccc12 [Cinchonine]
- inhibition at 10 µM [1, 16]: 28%
- Fibrin % cell toxicity [2, 17]: 1%
- inhibition at 10 µM [3, 18]: -6%
- Quadrant (FIG. 5b) ([4]; primary HTS, 10 μM): Q4
- LPS % cell toxicity [5, 19]: 0%

Structure (SMILES): COc1cc(NS(=O)(=O)c2ccc(N)cc2)ncn1 [Sulfamonomethoxine]
- inhibition at 10 µM [1, 20]: 19%
- Fibrin % cell toxicity [2, 21]: 1%
- inhibition at 10 µM [3, 22]: 38%
- Quadrant (FIG. 5b) [4, 13]: Q4
- LPS % cell toxicity [5, 23]: 1%

Structure (SMILES): COc1ccc2cc([C@H](C)CO)ccc2c1 [Naproxol]
- inhibition at 10 µM [1, 15]: 16%
- Fibrin % cell toxicity [2, 11]: 0%
- inhibition at 10 µM [3, 12]: -10%
- Quadrant (FIG. 5b) [4, 9]: Q4
- LPS % cell toxicity [5, 14]: 0%

Structure (SMILES): NP(N)(=O)NC(=O)c1ccc(F)cc1 [Flurofamide]
- inhibition at 10 µM [1, 6]: -12%
- Fibrin % cell toxicity [2, 7]: 0%
- inhibition at 10 µM [3, 8]: 3%
- Quadrant (FIG. 5b) [4, 9]: Q4
- LPS % cell toxicity [5, 10]: 0%
